The assay concerns LMP1 expression in Kem I cells. Nature of the assay: microbe, parasite or virus in culture. The assay is classed as cell-based, EBV. Conditions: for fold induction at 2.5 µM: human gammaherpesvirus 4, 48 h; for Average LMP1 Fold Increase / Replicate 1-LMP1 Fold Increase / Replicate 2-LMP1 Fold Increase: Kem I cells, dose 2.5 uM, 48 hours, LMP1 transcript by in-well qRT-PCR; for Average LMP1 Fold Increase: average of the two replicates; for Replicate 1-LMP1 Fold Increase: screen replicate 1; for Replicate 2-LMP1 Fold Increase: screen replicate 2. In general terms: In qPCR the cycle at which signal appears reflects the starting amount.

The mark [1] stands for this setting: read-out: Average LMP1 Fold Increase, Kem I cells, dose 2.5 uM, 48 hours, LMP1 transcript by in-well qRT-PCR, average of the two replicates.
Setting [2] is: read-out: Replicate 1-LMP1 Fold Increase, Kem I cells, dose 2.5 uM, 48 hours, LMP1 transcript by in-well qRT-PCR, screen replicate 1.
[3] abbreviates: read-out: Replicate 2-LMP1 Fold Increase, Kem I cells, dose 2.5 uM, 48 hours, LMP1 transcript by in-well qRT-PCR, screen replicate 2.

The structures appear in SMILES notation. Structures can show the parent of a compound that is named as a salt. Where two headings read alike, the source gives them in different places.

On to `CN1CC(=O)N2[C@H](c3ccc4c(c3)OCO4)c3[nH]c4ccccc4c3C[C@@H]2C1=O` [Tadalafil], for which the fold induction at 2.5 µM is, setting by setting: under setting [1], 3.06; under setting [2], 3.8; under setting [3], 2.32.

Turning to `COc1cc2c(N3CCN(C(=O)Nc4ccc(OC(C)C)cc4)CC3)ncnc2cc1OCCCN1CCCCC1` [Tandutinib (MLN518)], the “Average LMP1 Fold Increase” value was 0.31 fold, the “Replicate 1-LMP1 Fold Increase” value is on record as 0.21 fold and the “Replicate 2-LMP1 Fold Increase” value is listed as 0.41 fold.

`COc1cc2c(cc1OC)CN(CCc1ccc(NC(=O)c3cc(OC)c(OC)cc3NC(=O)c3cnc4ccccc4c3)cc1)CC2` [Tariquidar]: the fold induction at 2.5 µM was determined as 0.71 under setting [1], 0.56 under setting [2] and 0.87 under setting [3].

On to `CCCc1nc2c(C)cc(-c3nc4ccccc4n3C)cc2n1Cc1ccc(-c2ccccc2C(=O)O)cc1` [Telmisartan], for which the fold induction at 2.5 µM is, setting by setting: under setting [1], 0.37; under setting [2], 0.29; under setting [3], 0.45.

As for `CO[C@H]1C[C@@H]2CC[C@@H](C)[C@@](O)(O2)C(=O)C(=O)N2CCCC[C@H]2C(=O)O[C@H]([C@H](C)C[C@@H]2CC[C@@H](OC(=O)C(C)(CO)CO)[C@H](OC)C2)CC(=O)[C@H](C)/C=C(\C)[C@@H](O)[C@@H](OC)C(=O)[C@H](C)C[C@H](C)/C=C/C=C/C=C/1C` [Temsirolimus (CCI-779, NSC 683864)], the “Average LMP1 Fold Increase” value was determined as 155.77 fold, the “Replicate 1-LMP1 Fold Increase” value is listed as 1.06 fold and the “Replicate 2-LMP1 Fold Increase” value was determined as 310.48 fold.

Regarding `CC(C)OC(=O)OCOP(=O)(CO[C@H](C)Cn1cnc2c(N)ncnc21)OCOC(=O)OC(C)C` [Tenofovir Disoproxil Fumarate], the fold induction at 2.5 µM was found to be 0.56 under setting [1], 0.21 under setting [2] and 0.9 under setting [3].

Consider `C[C@H](Cn1cnc2c(N)ncnc21)OCP(=O)(O)O` [Tenofovir], for which the “Average LMP1 Fold Increase” value stood at 0.18 fold, the “Replicate 1-LMP1 Fold Increase” value was 0.18 fold and the “Replicate 2-LMP1 Fold Increase” value is 0.19 fold.

With `CN(C)CCCCC(=O)Nc1ccc(NC(=S)NC(=O)c2ccc(C(C)(C)C)cc2)cc1` [Tenovin-6], the “Average LMP1 Fold Increase” value is reported as 1.79 fold, the “Replicate 1-LMP1 Fold Increase” value is listed as 1.55 fold and the “Replicate 2-LMP1 Fold Increase” value is on record as 2.03 fold.

With `O=C(NCc1ccccc1)c1csc(Nc2ccncn2)n1` [Thiazovivin], the “Average LMP1 Fold Increase” value is 1.05 fold, the “Replicate 1-LMP1 Fold Increase” value is 1.05 fold and the “Replicate 2-LMP1 Fold Increase” value is listed as 1.04 fold.

Regarding `CCCSc1nc(N[C@@H]2C[C@H]2c2ccc(F)c(F)c2)c2nnn([C@@H]3C[C@H](OCCO)[C@@H](O)[C@H]3O)c2n1` [Ticagrelor], the fold induction at 2.5 µM worked out at 0.66 under setting [1], 0.61 under setting [2] and 0.7 under setting [3].

Regarding `Clc1ccccc1CN1CCc2sccc2C1` [Ticlopidine HCl], the fold induction at 2.5 µM under setting [1] came out at 1.15, the fold induction at 2.5 µM under setting [2] was found to be 0.52 and the fold induction at 2.5 µM under setting [3] amounted to 1.78.

Take `COc1ccc2cc(-c3nc(-c4ccc([S+](C)[O-])cc4)[nH]c3-c3ccncc3)ccc2c1` (stereo not drawn) [Tie2 kinase inhibitor]: the “Average LMP1 Fold Increase” value amounted to 1.08 fold, the “Replicate 1-LMP1 Fold Increase” value was found to be 0.36 fold and the “Replicate 2-LMP1 Fold Increase” value is 1.81 fold.

For `O=c1oc2cc(O)ccc2s1` [Tioxolone], the fold induction at 2.5 µM runs as follows: under setting [1], 0.55; under setting [2], 0.7; under setting [3], 0.41.

Take `C[C@@H]1CCN(C(=O)CC#N)C[C@@H]1N(C)c1ncnc2[nH]ccc12` [Tofacitinib (CP-690550,Tasocitinib)]: the “Average LMP1 Fold Increase” value turned out to be 0.46 fold, the “Replicate 1-LMP1 Fold Increase” value turned out to be 0.09 fold and the “Replicate 2-LMP1 Fold Increase” value stood at 0.82 fold.

Turning to `c1ccc(CC2=NCCN2)cc1` [Tolazoline HCl], the fold induction at 2.5 µM reads like this: under setting [1], 0.26; under setting [2], 0.26; under setting [3], 0.27.

For the origin of these results see US20230053688A1, “METHODS TO ALTER LATENCY IN EBV+ MALIGNANCIES” (Cornell University, priority 2020, published 2023).
